ChEMBL document CHEMBL1158018 (J Nat Prod, 1999)

Tests used:
[1] = target: Prostaglandin G/H synthase 1 (Homo sapiens, UniProt P23219); assay: Inhibition of PGHS1 assessed as conversion of arachidonic acid to prostaglandin
[2] = Antioxidant activity in liposomal model assessed as inhibition of ferrous ion-induced lipid peroxidation at 2 mM; format: functional; parameters: scale not given: the % may be the effect or the level left

Sequence of Prostaglandin G/H synthase 1 (P23219 whole entry): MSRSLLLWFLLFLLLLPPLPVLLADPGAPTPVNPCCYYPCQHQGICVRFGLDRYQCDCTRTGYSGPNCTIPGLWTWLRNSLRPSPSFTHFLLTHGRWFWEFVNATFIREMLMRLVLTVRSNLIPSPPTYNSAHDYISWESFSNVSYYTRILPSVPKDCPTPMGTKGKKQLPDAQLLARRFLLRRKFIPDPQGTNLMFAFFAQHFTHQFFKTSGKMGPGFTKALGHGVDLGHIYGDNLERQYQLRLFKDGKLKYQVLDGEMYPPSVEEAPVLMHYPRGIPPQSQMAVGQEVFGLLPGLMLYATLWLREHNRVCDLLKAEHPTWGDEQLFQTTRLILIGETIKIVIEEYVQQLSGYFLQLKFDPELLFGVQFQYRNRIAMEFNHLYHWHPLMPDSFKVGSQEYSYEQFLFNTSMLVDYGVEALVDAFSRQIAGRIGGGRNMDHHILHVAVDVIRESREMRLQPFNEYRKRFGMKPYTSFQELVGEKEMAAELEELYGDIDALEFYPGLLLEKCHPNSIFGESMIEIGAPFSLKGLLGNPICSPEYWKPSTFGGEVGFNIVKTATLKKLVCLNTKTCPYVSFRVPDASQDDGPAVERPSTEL

`Oc1cc(O)c2cc(O)c(-c3ccc(O)c(O)c3)[o+]c2c1` [CYANIDIN] showed an IC50 [1] of 90 µM and an Activity [2] of 57%.
